The results in this text go back to patent US10301295B2, “Herbicidal compounds” (Syngenta Participations AG, priority 2014, dated 2019).

Where two headings read alike, the source gives them in different places.

Holding throughout (type): in vivo
In assay [1] the test system is Alopecurus myosuroides (ALOMY). Put plainly: Glasshouse assay for herbicidal activity, pre-/post-emergence (percentage phytotoxicity). Conditions: Alopecurus myosuroides, Rate 250 g/ha, 100%=total damage, 0%=no damage. The essentials:
(§1)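 Pre- and post-emergence treatments were applied to potted plants at 1 and ~12 days after sowing respectively. Percentage phytotoxicity was judged visually 20 or 15 days later.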

In a further assay the test system is Avena fatua (AVEFA). The assay is described as above. To be noted: Avena fatua, Rate 250 g/ha, 100%=total damage, 0%=no damage. In a few lines: as §1
The test system of assay [2] is Echinochloa crus-galli (ECHCG). The assay is described as above. Conditions: Echinochloa crus-galli, Rate 250 g/ha, 100%=total damage, 0%=no damage. The essentials: as §1
The next assay concerns Lolium perenne (LOLPE). The assay is described as above. To be noted: Lolium perenne, Rate 250 g/ha, 100%=total damage, 0%=no damage. In a few lines:
as §1

For a further assay, the system named is wheat. Put plainly: Post-emergence herbicidal activity against cereal crops (wheat) +/- safener, crop selectivity. Conditions: 100%=total damage to plant, 0%=no damage; for Post-emergence herbicidal activity against wheat (percentage phytotoxicity), +CQC: 250 g/ha, plus safener cloquintocet-mexyl (CQC) applied at 50 g/ha; for percent phytotoxicity (crop damage) to wheat at 250 g/ha: Triticum aestivum, 360 h, without safener, read-out: Post-emergence herbicidal activity against wheat (percentage phytotoxicity), Wheat - CQC. Here is the method:
Seeds of a variety of monocotyledonous and dicotyledonous test plants are sown in standard soil in pots. The plants are cultivated for one day (for pre-emergence) or for about 12 days (for post-emergence) under controlled conditions in a glasshouse (warm climate species at 24/18° C., cool climate species at 20/16° C., both at day/night; 16 hours light; 65% humidity). The test plants are then grown on, in a glasshouse (greenhouse) under controlled conditions (warm climate species at 24/18° C., cool climate species at 20/16° C., both at day/night; 16 hours light; 65% humidity) and are watered twice daily. 15 days after application of the test herbicide (15DAA) (for post-emergence), and 20 days after application of the test herbicide (20DAA) (for pre-emergence), the test plants are evaluated visually, and an assessed percentage phytotoxicity score is given for each herbicidal application on each plant species (with 100%=total damage to plant; 0%=no damage to plant).

Where [3] appears, read: 360 h, post-emergence, visual assessment 15 DAA, read-out: Post-emergence herbicidal activity (percentage phytotoxicity), ALOMY POST.
Setting [4] is: 480 h, pre-emergence, visual assessment 20 DAA, read-out: Pre-emergence herbicidal activity (percentage phytotoxicity), ALOMY PRE.
The mark [5] stands for this setting: post-emergence, 360 h, post-emergence, visual assessment 15 DAA, read-out: Post-emergence herbicidal activity (percentage phytotoxicity), AVEFA POST.
[6] abbreviates: pre-emergence, 480 h, pre-emergence, visual assessment 20 DAA, read-out: Pre-emergence herbicidal activity (percentage phytotoxicity), AVEFA PRE.
Where [7] appears, read: post-emergence, 360 h, post-emergence, visual assessment 15 DAA, read-out: Post-emergence herbicidal activity (percentage phytotoxicity), ECHCG POST.
Setting [8] is: pre-emergence, 480 h, pre-emergence, visual assessment 20 DAA, read-out: Pre-emergence herbicidal activity (percentage phytotoxicity), ECHCG PRE.
The mark [9] stands for this setting: post-emergence, 360 h, post-emergence, visual assessment 15 DAA, read-out: Post-emergence herbicidal activity (percentage phytotoxicity), LOLPE POST.
The mark [10] stands for this setting: pre-emergence, 480 h, pre-emergence, visual assessment 20 DAA, read-out: Pre-emergence herbicidal activity (percentage phytotoxicity), LOLPE PRE.

As for `Cc1cc(C)c(C2C(=O)CC(CCNC(=O)C3=NOC(C)(C)C3)C2=O)c(C)c1` (centres unmarked) [Compound A40, N-[2-[2,4-dioxo-3-(2,4,6-trimethylphenyl)cyclopentyl]ethyl]-5,5-dimethyl-4H-isoxazole-3-carboxamide], the pest or weed control at 250 g/ha was 100% in assay [1] (setting [3]); 90% in assay [1] (setting [4]); 100% in the assay with Avena fatua (AVEFA) (setting [5]); 100% in the assay on Avena fatua (AVEFA) (setting [6]); 100% in assay [2] (setting [7]); 100% in assay [2] (setting [8]). The pest or weed control at 250 g/ha amounted to 90% in the assay with Lolium perenne (LOLPE) (setting [9]) and 100% with Lolium perenne (LOLPE) (setting [10]). Further, in the assay with wheat, the “Post-emergence herbicidal activity against wheat (percentage phytotoxicity), +CQC” value is given as 80%. For the same compound, in the assay on wheat, the percent phytotoxicity (crop damage) to wheat at 250 g/ha worked out at 90%.
For `Cc1cc(C)c(C2C(=O)CC(CCNC(=O)N(C)C(C)(C)C)C2=O)c(C)c1` (centres unmarked) [Compound A14], the pest or weed control at 250 g/ha stood at 80% in assay [1] (setting [3]); 90% in assay [1] (setting [4]); 90% with Avena fatua (AVEFA) (setting [5]); 90% with Avena fatua (AVEFA) (setting [6]); 100% in assay [2] (setting [7]); 100% in assay [2] (setting [8]). In addition, the pest or weed control at 250 g/ha with Lolium perenne (LOLPE) (setting [9]) and in the assay with Lolium perenne (LOLPE) (setting [10]) was 100% each time. Besides, the “Post-emergence herbicidal activity against wheat (percentage phytotoxicity), +CQC” value with wheat was 30%. The percent phytotoxicity (crop damage) to wheat at 250 g/ha with wheat came to 60%.
Regarding `Cc1cc(-n2cc(Cl)cn2)cc(C)c1C1C(=O)CC(CCNC(=O)Nc2ccccn2)C1=O.Cl` (centres unmarked) [Compound A13], the pest or weed control at 250 g/ha is 90% in assay [1] (setting [3]); 70% in assay [1] (setting [4]); 100% in the assay with Avena fatua (AVEFA) (setting [5]); 40% in the assay with Avena fatua (AVEFA) (setting [6]); 100% in assay [2] (setting [7]); 90% in assay [2] (setting [8]). Also, the pest or weed control at 250 g/ha in the assay on Lolium perenne (LOLPE) (setting [9]) is 70%; in the assay on Lolium perenne (LOLPE) (setting [10]) it was 50%. Moreover, in the assay with wheat, the “Post-emergence herbicidal activity against wheat (percentage phytotoxicity), +CQC” value is recorded as 40%. Besides, the percent phytotoxicity (crop damage) to wheat at 250 g/ha with wheat amounted to 70%.
Regarding `Cc1cc(C)c(C2C(=O)CC(CCNC(=S)NC(=O)c3ccccc3)C2=O)c(C)c1` (centres unmarked) [Compound A91], the pest or weed control at 250 g/ha in assay [1] (setting [3]) came out at 80%; in assay [1] (setting [4]), 60%; in the assay on Avena fatua (AVEFA) (setting [5]), 10%; in the assay on Avena fatua (AVEFA) (setting [6]), 60%; in assay [2] (setting [7]) it was 0%; in assay [2] (setting [8]), 70%. The pest or weed control at 250 g/ha in the assay on Lolium perenne (LOLPE) (setting [9]) and in the assay with Lolium perenne (LOLPE) (setting [10]) was 70% in each case. For the same compound, in the assay with wheat, the “Post-emergence herbicidal activity against wheat (percentage phytotoxicity), +CQC” value amounted to 70%. Further, in the assay on wheat, the percent phytotoxicity (crop damage) to wheat at 250 g/ha turned out to be 70%.
With `Cc1cc(C)c(C2C(=O)CC(CCNc3nc4ccc(Cl)cc4o3)C2=O)c(C)c1.Cl` (centres unmarked) [Compound A35], the pest or weed control at 250 g/ha was determined as 90% in assay [1] (setting [3]); 70% in assay [1] (setting [4]); 70% with Avena fatua (AVEFA) (setting [5]); 60% in the assay on Avena fatua (AVEFA) (setting [6]); 100% in assay [2] (setting [7]); 80% in assay [2] (setting [8]). The pest or weed control at 250 g/ha in the assay on Lolium perenne (LOLPE) (setting [9]) and in the assay on Lolium perenne (LOLPE) (setting [10]) was 100% each time. Besides, in the assay on wheat, the “Post-emergence herbicidal activity against wheat (percentage phytotoxicity), +CQC” value is reported as 60%. Moreover, the percent phytotoxicity (crop damage) to wheat at 250 g/ha in the assay with wheat is 80%.
Consider `Cc1cc(C)c(C2C(=O)CC(CCNC(=O)NC(=O)c3ccc(Cl)c(Cl)c3)C2=O)c(C)c1` (centres unmarked) [Compound A68], for which the pest or weed control at 250 g/ha in assay [1] (setting [3]) came out at 50%; in assay [1] (setting [4]), 0%; in the assay on Avena fatua (AVEFA) (setting [5]), 0%; in the assay with Avena fatua (AVEFA) (setting [6]) it was 10%; in assay [2] (setting [7]) it was 70%; in assay [2] (setting [8]), 10%. In addition, the results for the pest or weed control at 250 g/ha in the assay on Lolium perenne (LOLPE) (setting [9]) and in the assay on Lolium perenne (LOLPE) (setting [10]) were 80% and 30%, respectively. Moreover, in the assay with wheat, the “Post-emergence herbicidal activity against wheat (percentage phytotoxicity), +CQC” value is 0%. Moreover, in the assay with wheat, the percent phytotoxicity (crop damage) to wheat at 250 g/ha amounted to 90%.
For the compound `Cc1cc(C)c(C2C(=O)CC(CCNC(=O)NC(=O)c3c(F)cc(Cl)cc3F)C2=O)c(C)c1` (centres unmarked) [Compound A64], the pest or weed control at 250 g/ha in assay [1] (setting [3]) came out at 90%; in assay [1] (setting [4]), 100%; in the assay on Avena fatua (AVEFA) (setting [5]), 90%; in the assay on Avena fatua (AVEFA) (setting [6]) it was 80%; in assay [2] (setting [7]) it was 90%; in assay [2] (setting [8]), 80%. For the same compound, the results for the pest or weed control at 250 g/ha with Lolium perenne (LOLPE) (setting [9]) and in the assay on Lolium perenne (LOLPE) (setting [10]) were 100% and 80%, respectively. Moreover, the “Post-emergence herbicidal activity against wheat (percentage phytotoxicity), +CQC” value in the assay with wheat turned out to be 80%. The percent phytotoxicity (crop damage) to wheat at 250 g/ha in the assay on wheat stood at 90%.
In the case of `Cc1ccc(C(=O)NC(=O)NCCC2CC(=O)C(c3c(C)cc(C)cc3C)C2=O)cc1` (centres unmarked) [Compound A55], the pest or weed control at 250 g/ha in assay [1] (setting [3]) worked out at 70%; in assay [1] (setting [4]) it was 60%; with Avena fatua (AVEFA) (setting [5]) it was 0%; in the assay on Avena fatua (AVEFA) (setting [6]) it was 10%; in assay [2] (setting [7]), 80%; in assay [2] (setting [8]), 80%. The pest or weed control at 250 g/ha was determined as 90% with Lolium perenne (LOLPE) (setting [9]) and 70% in the assay with Lolium perenne (LOLPE) (setting [10]). Also, the “Post-emergence herbicidal activity against wheat (percentage phytotoxicity), +CQC” value in the assay on wheat came out at 0%. Also, the percent phytotoxicity (crop damage) to wheat at 250 g/ha in the assay on wheat was 30%.
As for `Cc1cc(C)c(C2C(=O)CC(CCNC(=O)NC(=O)c3ccccc3C(F)(F)F)C2=O)c(C)c1` (centres unmarked) [Compound A60], the pest or weed control at 250 g/ha in assay [1] (setting [3]) stood at 100%; in assay [1] (setting [4]) it was 70%; in the assay with Avena fatua (AVEFA) (setting [5]), 100%; with Avena fatua (AVEFA) (setting [6]), 80%; in assay [2] (setting [7]), 80%; in assay [2] (setting [8]), 70%. Also, the values for the pest or weed control at 250 g/ha in the assay with Lolium perenne (LOLPE) (setting [9]) and in the assay on Lolium perenne (LOLPE) (setting [10]) were 90% and 80%, respectively. Further, in the assay on wheat, the “Post-emergence herbicidal activity against wheat (percentage phytotoxicity), +CQC” value stood at 70%. Besides, the percent phytotoxicity (crop damage) to wheat at 250 g/ha with wheat turned out to be 80%.
For `Cc1cc(-n2cc(Cl)cn2)cc(C)c1C1C(=O)CC(CCNC(=O)C2=NOC(C)(C)C2)C1=O` (centres unmarked) [Compound A43], the pest or weed control at 250 g/ha in assay [1] (setting [3]) stood at 90%; in assay [1] (setting [4]), 90%; in the assay with Avena fatua (AVEFA) (setting [5]), 100%; in the assay with Avena fatua (AVEFA) (setting [6]), 90%; in assay [2] (setting [7]), 100%; in assay [2] (setting [8]) it was 90%. In addition, the values for the pest or weed control at 250 g/ha in the assay with Lolium perenne (LOLPE) (setting [9]) and in the assay on Lolium perenne (LOLPE) (setting [10]) were 100% and 90%, respectively. In addition, the “Post-emergence herbicidal activity against wheat (percentage phytotoxicity), +CQC” value with wheat is on record as 50%. The percent phytotoxicity (crop damage) to wheat at 250 g/ha in the assay on wheat was 90%.
On to `Cc1cc(C)c(C2C(=O)CC(CCNC(=O)NC(C)(C)C)C2=O)c(C)c1` (centres unmarked) [Compound A5], for which the pest or weed control at 250 g/ha in assay [1] (setting [3]) was determined as 80%; in assay [1] (setting [4]), 100%; with Avena fatua (AVEFA) (setting [5]), 90%; with Avena fatua (AVEFA) (setting [6]), 80%; in assay [2] (setting [7]), 100%; in assay [2] (setting [8]), 90%. The pest or weed control at 250 g/ha in the assay on Lolium perenne (LOLPE) (setting [9]) and with Lolium perenne (LOLPE) (setting [10]) was 90% each time. Besides, the “Post-emergence herbicidal activity against wheat (percentage phytotoxicity), +CQC” value with wheat amounted to 20%. Besides, the percent phytotoxicity (crop damage) to wheat at 250 g/ha in the assay on wheat is 50%.
